From patent US11000033B2, “Ketone or oxime compound, and herbicide” (NISSAN CHEMICAL CORPORATION, priority 2014, dated 2021)

Legend:
Format in all cases: in vivo
[1] = tested on: Echinochloa oryzacola Vasing.; experiment: Test Example 1: herbicidal activity, application before weed generation in submerged conditions (symbol A); details: application herbicide amount 320 g/ha
Procedure, shortened: (§1)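 Scores run 0 to 5 by herbicidal ratio, with 5 meaning 90% or more and 0 meaning 5% or lower, read 3 weeks after treatment. Compound was applied as a diluted emulsion to the water surface of submerged alluvial-soil pots on the day weed seeds were sown.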

[2] = tested on: Scirpus juncoides; experiment: Test Example 1: herbicidal activity, application before weed generation in submerged conditions (symbol B); details: application herbicide amount 320 g/ha
Procedure, shortened: as §1

[3] = tested on: Monochoria vaginalis; experiment: Test Example 1: herbicidal activity, application before weed generation in submerged conditions (symbol C); details: application herbicide amount 320 g/ha
Procedure, shortened: as §1

[4] = tested on: transplanted rice plant; experiment: Test Example 1: effect on crop, application before weed generation in submerged conditions (symbol a); details: application herbicide amount 320 g/ha
Procedure, shortened: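 Alluvial soil pots flooded to 4 cm water, sown with Echinochloa oryzacola, Scirpus juncoides and Monochoria vaginalis, then transplanted with 2.5 leaf stage rice seedlings; pre-emergence application. Greenhouse 25° C. to 30° C.; scored 0–5 by herbicidal ratio 3 weeks after application.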

[5] = tested on: Echinochloa oryzacola Vasing.; experiment: Test Example 2: herbicidal activity, application during weed generation in submerged conditions (symbol A); details: Table 23; application herbicide amount 320 g/ha; grade 0-5 by criteria of Test Example 1
Procedure, shortened: (§2)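 Each pot contained alluvial soil under 4 cm of water with seeds of all three weeds sown together. Following growth at 25° C. to 30° C. to the one- to two-leaf stage, the floodwater received diluted emulsion at a predetermined amount; visual assessment followed at 3 weeks.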

[6] = tested on: Scirpus juncoides; experiment: Test Example 2: herbicidal activity, application during weed generation in submerged conditions (symbol B); details: Table 23; application herbicide amount 320 g/ha; grade 0-5 by criteria of Test Example 1
Procedure, shortened: as §2

[7] = tested on: Monochoria vaginalis; experiment: Test Example 2: herbicidal activity, application during weed generation in submerged conditions (symbol C); details: Table 23; application herbicide amount 320 g/ha; grade 0-5 by criteria of Test Example 1
Procedure, shortened: as §2

[8] = tested on: Echinochloa crus-galli var. crus-galli; experiment: Test Example 3: herbicidal effect by foliage application, Wagner pot (symbol H); details: application herbicide amount 320 g/ha, Table 24
Procedure, shortened: (§3)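 Seeds sown in alluvial soil kept under 0.1–0.5 cm water, greenhouse 25–30 °C; 14 d growth. Leaves treated by small sprayer with water-diluted emulsion at a predetermined rate. Effect graded by set scale, 3 weeks.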

[9] = tested on: Leptochloa chinensis; experiment: Test Example 3: herbicidal effect by foliage application, Wagner pot (symbol D); details: application herbicide amount 320 g/ha, Table 24
Procedure, shortened: as §3

[10] = tested on: Cyperus difformis; experiment: Test Example 3: herbicidal effect by foliage application, Wagner pot (symbol E); details: application herbicide amount 320 g/ha, Table 24
Procedure, shortened: as §3

[11] = tested on: directly sowed rice plant; experiment: Test Example 3: effect on crop by foliage application, Wagner pot (symbol b); details: application herbicide amount 320 g/ha, Table 24
Procedure, shortened: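 Steps: fill a 1/10000-are Wagner pot with alluvial soil; add water and mix to submerge at 0.1–0.5 cm depth; sow rice plus Echinochloa crus-galli var. crus-galli, Leptochloa chinensis and Cyperus difformis; grow in a 25–30 °C greenhouse.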

[12] = tested on: Digitaria ciliaris; experiment: Test Example 5: herbicidal effect by foliage application, plastic box (symbol F); details: 320 g/ha, 3 weeks after application
Procedure, shortened: (§4)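 Sowing in sterilized diluvial soil, 14 days' greenhouse growth at 25° C. to 30° C., then uniform small-sprayer foliar application of aqueous emulsion dilution; plants scored three weeks afterwards.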

[13] = tested on: Setaria viridis; experiment: Test Example 5: herbicidal effect by foliage application, plastic box (symbol G); details: 320 g/ha, 3 weeks after application
Procedure, shortened: as §4

[14] = tested on: Echinochloa crus-galli var. crus-galli; experiment: Test Example 5: herbicidal effect by foliage application, plastic box (symbol H); details: 320 g/ha, 3 weeks after application
Procedure, shortened: as §4

[15] = tested on: Avena fatua; experiment: Test Example 5: herbicidal effect by foliage application, plastic box (symbol I); details: 320 g/ha, 3 weeks after application
Procedure, shortened: as §4

[16] = tested on: Alopecurus myosuroides; experiment: Test Example 5: herbicidal effect by foliage application, plastic box (symbol J); details: 320 g/ha, 3 weeks after application
Procedure, shortened: as §4

[17] = tested on: Lolium multiflorum Lam.; experiment: Test Example 5: herbicidal effect by foliage application, plastic box (symbol K); details: 320 g/ha, 3 weeks after application
Procedure, shortened: as §4

[18] = tested on: Apera spica-venti; experiment: Test Example 5: herbicidal effect by foliage application, plastic box (symbol L); details: 320 g/ha, 3 weeks after application
Procedure, shortened: as §4

[19] = tested on: Abutilon theophrasti; experiment: Test Example 5: herbicidal effect by foliage application, plastic box (symbol M); details: 320 g/ha, 3 weeks after application
Procedure, shortened: as §4

[20] = tested on: Amaranthus retroflexus; experiment: Test Example 5: herbicidal effect by foliage application, plastic box (symbol N); details: 320 g/ha, 3 weeks after application
Procedure, shortened: as §4

[21] = tested on: Chenopodium album; experiment: Test Example 5: herbicidal effect by foliage application, plastic box (symbol O); details: 320 g/ha, 3 weeks after application
Procedure, shortened: as §4

[22] = tested on: Stellaria media; experiment: Test Example 5: herbicidal effect by foliage application, plastic box (symbol P); details: 320 g/ha, 3 weeks after application
Procedure, shortened: as §4

[23] = tested on: Galium spurium; experiment: Test Example 5: herbicidal effect by foliage application, plastic box (symbol Q); details: 320 g/ha, 3 weeks after application
Procedure, shortened: as §4

[24] = tested on: Veronica persica; experiment: Test Example 5: herbicidal effect by foliage application, plastic box (symbol R); details: 320 g/ha, 3 weeks after application
Procedure, shortened: as §4

[25] = tested on: corn; experiment: Test Example 5: effect on crop by foliage application, plastic box (symbol c); details: 320 g/ha, 3 weeks after application
Procedure, shortened: (§5)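 A greenhouse held between 25° C. and 30° C. was used to grow plants sown spot-wise, beneath ~1.5 cm of soil, in boxes of sterilized diluvial soil.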

[26] = tested on: soybean; experiment: Test Example 5: effect on crop by foliage application, plastic box (symbol d); details: 320 g/ha, 3 weeks after application
Procedure, shortened: as §5

[27] = tested on: rice plant; experiment: Test Example 5: effect on crop by foliage application, plastic box (symbol b); details: 320 g/ha, 3 weeks after application
Procedure, shortened: as §5

[28] = tested on: wheat; experiment: Test Example 5: effect on crop by foliage application, plastic box (symbol e); details: 320 g/ha, 3 weeks after application
Procedure, shortened: as §5

[29] = tested on: beet; experiment: Test Example 5: effect on crop by foliage application, plastic box (symbol f); details: 320 g/ha, 3 weeks after application
Procedure, shortened: as §5

[30] = tested on: rapeseed; experiment: Test Example 5: effect on crop by foliage application, plastic box (symbol g); details: 320 g/ha, 3 weeks after application
Procedure, shortened: as §5

In the case of `COCCON=C(CC1CC(O)=C(c2c(C)cc(Br)cc2C)C1=O)C(C)C` (stereo not drawn) [9-018], the “A (Echinochloa oryzacola Vasing.) herbicidal effect grade” value [1] is reported as 1 (Herbicidal ratio of 5% or higher and lower than 20%), the “B (Scirpus juncoides) herbicidal effect grade” value [2] is reported as 0 (Herbicidal ratio of 5% or lower (almost no effect)) and the “C (Monochoria vaginalis) herbicidal effect grade” value [3] is reported as 0 (Herbicidal ratio of 5% or lower (almost no effect)). The “a (transplanted rice plant) effect on crop grade” value [4] was 2 (Herbicidal ratio of 20% or higher and lower than 40%), the “Herbicidal effect grade, A: Echinochloa oryzacola Vasing.” value [5] was 1 (Herbicidal ratio of 5% or higher and lower than 20%) and the “Herbicidal effect grade, B: Scirpus juncoides” value [6] was 0 (Herbicidal ratio of 5% or lower (almost no effect)). The “Herbicidal effect grade, C: Monochoria vaginalis” value [7] was 0 (Herbicidal ratio of 5% or lower (almost no effect)), the “H (Echinochloa crus-galli var. crus-galli) herbicidal effect grade” value [8] was 2 (Herbicidal ratio of 20% or higher and lower than 40%) and the “D (Leptochloa chinensis) herbicidal effect grade” value [9] was 0 (Herbicidal ratio of 5% or lower (almost no effect)). The “E herbicidal effect grade” value [10] was 0 (Herbicidal ratio of 5% or lower (almost no effect)), the “b (directly sowed rice plant) effect on crop grade” value [11] was 4 (Herbicidal ratio of 70% or higher and lower than 90%) and the “F: Digitaria ciliaris, herbicidal effect grade” value [12] was 0 (Herbicidal ratio of 5% or lower (almost no effect)). The “G: Setaria viridis, herbicidal effect grade” value [13] was 3 (Herbicidal ratio of 40% or higher and lower than 70%), the “H: Echinochloa crus-galli var. crus-galli, herbicidal effect grade” value [14] was 3 (Herbicidal ratio of 40% or higher and lower than 70%) and the “I: Avena fatua, herbicidal effect grade” value [15] was 3 (Herbicidal ratio of 40% or higher and lower than 70%). The “J: Alopecurus myosuroides, herbicidal effect grade” value [16] was 1 (Herbicidal ratio of 5% or higher and lower than 20%), the “K: Lolium multiflorum Lam., herbicidal effect grade” value [17] was 1 (Herbicidal ratio of 5% or higher and lower than 20%) and the “L: Apera spica-venti, herbicidal effect grade” value [18] was 0 (Herbicidal ratio of 5% or lower (almost no effect)). The “M: Abutilon theophrasti, herbicidal effect grade” value [19] was 0 (Herbicidal ratio of 5% or lower (almost no effect)), the “N: Amaranthus retroflexus, herbicidal effect grade” value [20] was 0 (Herbicidal ratio of 5% or lower (almost no effect)) and the “O: Chenopodium album, herbicidal effect grade” value [21] was 0 (Herbicidal ratio of 5% or lower (almost no effect)). For the same molecule, the “P: Stellaria media, herbicidal effect grade” value [22] was 1 (Herbicidal ratio of 5% or higher and lower than 20%), the “Q: Galium spurium, herbicidal effect grade” value [23] was 0 (Herbicidal ratio of 5% or lower (almost no effect)) and the “R: Veronica persica, herbicidal effect grade” value [24] was 0 (Herbicidal ratio of 5% or lower (almost no effect)). For the same molecule, the “c: corn, effect on crop grade” value [25] was 3 (Herbicidal ratio of 40% or higher and lower than 70%), the “d: soybean, effect on crop grade” value [26] was 0 (Herbicidal ratio of 5% or lower (almost no effect)) and the “b: directly sowed rice plant, effect on crop grade” value [27] was 3 (Herbicidal ratio of 40% or higher and lower than 70%). The “e: wheat, effect on crop grade” value [28] was 0 (Herbicidal ratio of 5% or lower (almost no effect)), the “f: beet, effect on crop grade” value [29] was 0 (Herbicidal ratio of 5% or lower (almost no effect)) and the “g: rapeseed, effect on crop grade” value [30] was 0 (Herbicidal ratio of 5% or lower (almost no effect)).
